In US12685320B2, “Food processing oxidation treatment forumlations and methods” (Clean Chemistry, Inc., priority 2023, dated 2026):

Columns and labels:
Salmonella spp. = assay: Poultry chiller tank (pre-chiller and red water main chiller): Salmonella on inoculated poultry thighs; format: cell-based, S. Infantis, S. Typhimurium, S. Enteritidis; conditions: for Recovered average Log10 CFU/g: pH>8.5
Procedure: (§1) A standardized test was conducted to compare the antimicrobial efficacy, residual decay, and effect on solution pH of peracetate and peracetic acid in reducing Salmonella spp. on poultry as a processing method directed to control microbial growth or inactivate microorganisms in food products during processing to lower risk of foodborne pathogens or spoilage microorganisms. The objective of this study was to determine the efficacy of peracetate and peracetic acid treatments for reducing Salmonella spp. on poultry thighs in a treatment bath under conditions simulating pre-chiller and red water main chiller applications. To mimic these applications in a poultry processing facility, target concentrations were determined to be 150 ppm of either peracetate (as PAA equivalents) or peracetic acid in the simulated pre-chiller application and 75 ppm of either peracetate (as PAA equivalents) or peracetic acid in the simulated red water main chiller application. Both applications targeted a pH>8.5 to simulate the intentional alkalinity of chillers in poultry processing facilities.
(§2) The pH, temperature, and residual antimicrobial concentration (measured as either peracetate or peracetic acid) were monitored through the duration of both applications. […]
The inoculum used in this study was prepared from three reference strains of Salmonella: S. Infantis (Reference Strain ID: ATCC 51741), S. Typhimurium (Reference Strain ID: ATCC 13311), and S. Enteritidis (Reference Strain ID: ATCC 13076). […] Colonies from each strain were placed into individual tubes of buffered peptone water (BPW) determined using a spectrophotometer (ThermoFisher Scientific, 1700/0512). […] Post incubation, colonies were counted, and log transformed reported. […]
Prior to inoculation, the average weight of the poultry thighs used in this study was determined to be 150 grams. […]

[1] = Poultry chiller tank: residual decay and odor of antimicrobial baths; format: physicochemical
Procedure: as §1, with “Both applications targeted a pH>8.5 to simulate the intentional alkalinity of chillers in poultry processing facilities.” left out
as §2
During the pre-chiller and main chiller treatments, the temperature, pH, and antimicrobial concentrations were monitored and recorded every 10 minutes. […] After incubating, colonies were counted, and log transformed.

For `CC(=O)OO` [peracetic acid], the “Recovered average Log10 CFU/g” value (Salmonella spp.; main chiller treatment (after pre-chiller), target 75 ppm, untreated main chiller control 4.13) was 3.45 Log10 CFU/g, the “difference in antimicrobial effectiveness of peracetic acid and peracetate” value (Salmonella spp.; pre-chiller and main chiller) was “No significant difference” and the “Recovered average Log10 CFU/g” value (Salmonella spp.; pre-chiller treatment, target 150 ppm, untreated 5.46, untreated pre-chiller control 4.76) was 3.65 Log10 CFU/g. For the same compound, the “additional antimicrobial required to maintain minimum concentration” value ([1]; pre-chiller application) was 13.0 mL and the “additional antimicrobial required to maintain minimum concentration” value ([1]; red water main chiller application) was 26.0 mL.
